{"source": "patent US10426775B2", "about": "“Methods for treating Friedreich's ataxia with etravirine” (Fratagene Therapeutics srl, priority 2017, dated 2019)", "key": {"frataxin precursor": {"test_system": "frataxin precursor", "assay": "Western blot of frataxin in HEK293 Flp-In cells stably transfected with frataxin (HEK293-fxn)", "format": "cell-based, human", "procedure": "For the validation steps, etravirine (TMC125) was purchased from Selleckchem and was dissolved in DMSO at a stock concentration of 10 mM. HEK-293 Flp-In cells, stably overexpressing frataxin, were treated with the drug (or only DMSO) for 24 hours at final concentration of 10 μM. FRDA cells were treated with different concentration of etravirine. For all drug (and no drug) treatments, the final concentration of DMSO in the cell culture medium was 0.1%.\nTotal cell extracts were prepared in lysis buffer (50 mM Tris-HCl, pH 7.5, 150 mM NaCl, 1% Igepal CA-630, 5 mM EDTA, 5 mM EGTA) supplemented with complete protease inhibitor cocktail (Roche Diagnostics, Indianapolis, Ind., USA). […] The immunoreactive bands were detected by ECL (GE Healthcare, Chalfont St. Giles, UK) and imaged with a ChemiDoc XRS system (Bio-Rad). […] All values are expressed as means±1 S.E.M.\nThe identified candidate drugs were individually validated for their ability to promote frataxin accumulation in different cell types. […] Protein extracts from the cell lines were resolved on SDS-PAGE and analyzed by western blot with anti-frataxin antibody and anti-tubulin as a loading control. […]\nHEK 293-fxn stably expressing frataxin (A), HEK 293 (B), or FRDA lymphoblast cell line GM16203 (C) were treated with 10 μM etravirine for the indicated time points. Protein extracts were resolved on SDS-PAGE and analyzed by western blot with anti-frataxin antibody and anti-tubulin as a loading control. […] Quantitative analysis of newly-synthesized FXN mRNA was performed by metabolic labeling of nascent RNA using the Click-iT Nascent RNA Capture Kit (Life Technologies), followed by biotin conjugation and isolation with streptavidin beads, according to provider instructions. Nascent frataxin transcripts levels were quantitated by real-time PCR relative to the expression of the control genes ACTB, GUSB and ATP5J. […] Relative levels of total frataxin mRNA were measured by real-time PCR and normalized on expression levels of three control genes ATP5J, GUSB and ACTB using the ΔΔCt method. […]"}, "[1]": {"test_system": "GM16214 and GM16215 lymphoblasts", "assay": "Cell viability (XTT) after H2O2 treatment of lymphoblasts", "format": "cell-based, human", "conditions": "500 nM etravirine 24 h", "procedure": "Cells were treated with etravirine 500 nM for 24 h, then transferred (40000 cells/100 ul/well) into 96-well tissue culture plates. Cultures were supplemented for 16 h with 12.5 μM, 25 μM and 50 μM H2O2 (Sigma-Aldrich). After H2O2 treatment, 1 mg/ml XTT (2,3-Bis-(2-Methoxy-4-Nitro-5-Sulfophenyl)-2H-Tetrazolium-5-Carboxanilide) (INVITROGEN™, Thermo Fisher Scientific, Waltham, Mass. USA) and 0.25% Phenazine methosulfate (PMS, Fisher Scientific, Thermo Fisher Scientific, Waltham, Mass. USA) were added (25 μL/well) and cells were incubated for additional 2 h. Results were expressed as the percentage of reduction of absorbance at 450 nm by calibration with the absorbance of the control (untreated) cells. […]\nFIGS. 6A to 6E show how etravirine functionally can rescue frataxin deficiency in FRDA patient cells. […] Cell extracts were resolved on SDS-PAGE and analysed by western blot with anti-frataxin antibody and anti-tubulin as a loading control. […] Aconitase activity was measured spectrophotometrically at 340 nm as described in the Methods section. Data represent the average of three (C) or five (D) independent experiments±S.E.M. p-values were calculated with Student's t-test (*p<0.05) E): Lymphoblasts derived from FRDA patient (GM16214) or from the unaffected carrier parent (GM16215), were either treated with 500 nM etravirine for 24 hrs or with vehicle only. […]"}}}
{"smiles": "Cc1cc(C#N)cc(C)c1Oc1nc(Nc2ccc(C#N)cc2)nc(N)c1Br", "note": "[etravirine]", "values": [{"measurement": "increase in frataxin precursor levels (densitometric ratio frataxin precursor/tubulin)", "setting": "frataxin precursor; HEK293-fxn, 10 μM of each candidate drug, 24 h", "result": "striking upregulation"}, {"measurement": "amount of frataxin precursor", "setting": "frataxin precursor; HEK293-fxn, etravirine at 10 (μM), detectable after 4 hours, higher after 12 hours", "result": "rapid and robust increase"}, {"measurement": "frataxin accumulation compared with MG132 treatment", "setting": "frataxin precursor; etravirine vs general proteasome inhibitor MG132, cell system not stated", "result": "strikingly stronger"}, {"measurement": "protection from H2O2-induced cell death", "setting": "[1]; GM16214 patient lymphoblasts, then 12.5, 25, 50 μM H2O2 for 16 h", "result": "significantly protects"}, {"measurement": "cell viability after H2O2 in healthy control cells upon etravirine treatment", "setting": "[1]; GM16215 lymphoblasts, then H2O2 for 16 h", "result": "no further improvement"}]}
